Measurements published in patent US7851220B2, “Diacylhydrazine ligands for modulating the expression of exogenous genes in mammalian systems via an ecdysone receptor complex” (priority 2003, dated 2010).
pEC50: −log10 of the molar value.

Molecular target: T1, GAL4 DBD (1-147)-CfEcR(DEF)/VP16AD-βRXREF-LmUSPEF (Choristoneura fumiferana, UniProt O77240)
T1 construct: The wild-type D, E, and F domains from spruce budworm Choristoneura fumiferana EcR (“CfEcR-DEF”)
Assay: 27-63 Assay (luciferase reporter gene assay in stably transfected CHO cell clone)
Format: cell-based
Settings: for relative Max F1 27-63 Assay: maximum fold induction at any concentration relative to maximum fold induction of GS-E ligand
Protocol: Stably transfected cells were selected by Zeocin resistance. Individually isolated CHO cell clones were transiently transfected with a GAL4 RE-luciferase reporter (pFR Luc). 27-63 clone was selected using Hygromycin.
Cells were trypsinized and diluted to a concentration of 2.5×10^4 cells mL. 100 μL of cell suspension was placed in each well of a 96 well plate and incubated at 37° C. under 5% CO2 for 24 h. Ligand stock solutions were prepared in DMSO and diluted 300 fold for all treatments.
Luciferase reporter gene expression was measured 48 h after cell treatment using Bright-Glo™ Luciferase Assay System from Promega (E2650). Luminescence was detected at room temperature using a Dynex MLX microtiter plate luminometer. EC50s were calculated from dose response data using a three-parameter logistic model.
Each assay was conducted in two separate wells, and the two values were averaged.

[1] = CHO 27-63 clone, luciferase, 48 h

SMILES | pEC50 | relative Max F1 27-63 Assay [1] | Avg F1 27-63 Assay (at 33 μM, CHO 27-63 clone, luciferase, 48 h)
CCc1c(OC)cccc1C(=O)NN(C(=O)c1cc(C)cc(C)c1)C(C)(C)C [GS ™-E ligand, 3,5-Dimethyl-benzoic acid N-tert-butyl-N′-(2-ethyl-3-methoxy-benzoyl)-hydrazide, reference compound] | 6.54 | – | –
Cc1cc(C)cc(C(=O)N(NC(=O)c2ccc3c(c2C)OC(CO)CO3)C(C)(C)C)c1 (stereo not shown) [RG-115789, 3,5-dimethylbenzoic acid N-tert-butyl-N′-(3-hydroxymethyl-5-methyl-2,3-dihydrobenzo[1,4]dioxine-6-carbonyl)-hydrazide] | 5.73 | 0.81 | –
Cc1cc(C)cc(C(=O)N(NC(=O)c2ccc3c(c2C)O[C@@H](CO[Si](C)(C)C(C)(C)C)CO3)C(C)(C)C)c1 [RG-115790, 3,5-dimethylbenzoic acid N-tert-butyl-N′-[3-(tert-butyldimethylsilytoxymethyl)-5-methyl-2,3-dihydrobenzo[1,4]dioxine-6-carbonyl]-hydrazide] | < 4.48 | 0.0 | –
Cc1cc(C)cc(C(=O)N(NC(=O)c2ccc3c(c2C)OC(C(=O)O)CO3)C(C)(C)C)c1 (stereo not shown) [RG-115805, 7-[N′-tert-butyl-N′-(3,5-dimethyl-benzoyl)-hydrazinocarbonyl]-8-methyl-2,3-dihydro-benzo[1,4]dioxine-2-carboxylic acid] | < 4.48 | 0.01 | –
COC(=O)[C@H]1COc2ccc(C(=O)NN(C(=O)c3cc(C)cc(C)c3)C(C)(C)C)c(C)c2O1 [RG-115806] | ~4.48 | 0.25 | –
Cc1cc(C)cc(C(=O)N(NC(=O)c2ccc3c(c2C)O[C@@H](C=NNC(N)=O)CO3)C(C)(C)C)c1 [RG-115807, 3,5-dimethyl-benzoic acid N-tert-butyl-N′-(3-formylsemicarbazide-5-methyl-2,3-dihydro-benzo[1,4]dioxine-6-carbonyl)-hydrazide] | 5.48 | 0.80 | –
Cc1cc(C)cc(C(=O)N(NC(=O)c2ccc3c(c2C)OC(COC(=O)Nc2ccccc2)CO3)C(C)(C)C)c1 (stereo not shown) [RG-115808, phenyl-carbamic acid 7-[N′-tert-butyl-N′-(3,5-dimethyl-benzoyl)-hydrazinocarbonyl]-8-methyl-2,3-dihydro-benzo[1,4]dioxin-2-ylmethyl ester] | 5.95 | 2.37 | –
Cc1cc(C)cc(C(=O)N(NC(=O)c2ccc3c(c2C)OC(CCN)CO3)C(C)(C)C)c1 (stereo not shown) [RG-115809, 3,5-dimethyl-benzoic acid N′-[3-(2-amino-ethyl)-5-methyl-2,3-dihydro-benzo[1,4]dioxine-6-carbonyl]-N-tert-butyl-hydrazide] | 5.49 | 1.09 | –
Cc1cc(C)cc(C(=O)N(NC(=O)c2ccc3c(c2C)OC(C(=O)Oc2c(F)c(F)c(F)c(F)c2F)CO3)C(C)(C)C)c1 (stereo not shown) [RG-115810, 7-[N′-tert-butyl-N′-(3,5-dimethyl-benzoyl)-hydrazinocarbonyl]-8-methyl-2,3-dihydro-benzo[1,4]dioxine-2-carboxylic acid pentafluorophenyl ester] | ~4.70 | 1.23 | –
CNC(=O)C1COc2ccc(C(=O)NN(C(=O)c3cc(C)cc(C)c3)C(C)(C)C)c(C)c2O1 (stereo not shown) [RG-115811, 7-[N′-tert-butyl-N′-(3,5-dimethyl-benzoyl)-hydrazinocarbonyl]-8-methyl-2,3-dihydro-benzo[1,4]dioxine-2-carboxylic acid methylamide] | < 4.48 | 0.24 | –
Cc1cc(C)cc(C(=O)N(NC(=O)c2ccc3c(c2C)OC(C=O)CO3)C(C)(C)C)c1 (stereo not shown) [RG-115812, 3,5-dimethyl-benzoic acid N-tert-butyl-N′-(3-formyl-5-methyl-2,3-dihydro-benzo[1,4]dioxine-6-carbonyl)-hydrazide] | 5.57 | 0.86 | –
Cc1ccc(S(=O)(=O)OCC2COc3ccc(C(=O)NN(C(=O)c4cc(C)cc(C)c4)C(C)(C)C)c(C)c3O2)cc1 (stereo not shown) [RG-115813, toluene-4-sulfonic acid 7-[N′-tert-butyl-N′-(3,5-dimethyl-benzoyl)-hydrazinocarbonyl]-8-methyl-2,3-dihydro-benzo[1,4]dioxin-2-ylmethyl ester] | < 4.48 | 0.01 | –
Cc1cc(C)cc(C(=O)N(NC(=O)c2ccc3c(c2C)OC(C=NO)CO3)C(C)(C)C)c1 (stereo not shown) [RG-115814, 3,5-dimethyl-benzoic acid N-tert-butyl-N′-[3-(hydroxyimino-methyl)-5-methyl-2,3-dihydro-benzo[1,4]dioxine-6-carbonyl]-hydrazide] | 6.49 | 1.0 | –
Cc1cc(C)cc(C(=O)N(NC(=O)c2ccc3c(c2C)OC(CF)CO3)C(C)(C)C)c1 (stereo not shown) [RG-115815, 3,5-dimethyl-benzoic acid N-tert-butyl-N′-(3-fluoromethyl-5-methyl-2,3-dihydro-benzo[1,4]dioxine-6-carbonyl)-hydrazide] | 6.52 | 0.738 | –
Cc1cc(C)cc(C(=O)N(NC(=O)c2ccc3c(c2C)OC(CC#N)CO3)C(C)(C)C)c1 (stereo not shown) [RG-115816, 3,5-Dimethyl-benzoic acid N-tert-butyl-N′-(3-cyanomethyl-5-methyl-2,3-dihydro-benzo[1,4]dioxine-6-carbonyl)-hydrazide] | 5.37 | 0.85 | –
CSCC1COc2ccc(C(=O)NN(C(=O)c3cc(C)cc(C)c3)C(C)(C)C)c(C)c2O1 (stereo not shown) [RG-115817, 3,5-dimethyl-benzoic acid N-tert-butyl-N′-(5-methyl-3-methylsulfanylmethyl-2,3-dihydro-benzo[1,4]dioxine-6-carbonyl)-hydrazide] | 5.54 | 0.95 | –
Cc1cc(C)cc(C(=O)N(NC(=O)c2ccc3c(c2C)O[C@@H](CS(C)(=O)=O)CO3)C(C)(C)C)c1 [RG-115818, 3,5-Dimethyl-benzoic acid N-tert-butyl-N′-(3-methanesulfonyl-methyl-5-methyl-2,3-dihydro-benzo[1,4]dioxine-6-carbonyl)-hydrazide] | 5.28 | – | –
CCCCCCC(N(NC(=O)c1ccc(CC)cc1)C(=O)c1cc(C)cc(C)c1)C(C)(C)C (stereo not shown) [RG-115843] | 6.07 | 0.73 | –
CCCCCCC(N(NC(=O)c1ccc(CC)cc1)C(=O)c1cc(OC)c(C)c(OC)c1)C(C)(C)C (stereo not shown) [RG-115844] | 5.91 | 0.352 | –
CCCCCCC(N(NC(=O)c1ccc(CC)cc1)C(=O)c1cccnc1OC)C(C)(C)C (stereo not shown) [RG-115845, 2-methoxy-nicotinic acid N-(1-tert-butyl-heptyl)-N′-(4-ethyl-benzoyl)-hydrazide] | 5.35 | 0.52 | –
CCCCCCC(N(NC(=O)c1cccc(OC)c1C)C(=O)c1cc(C)cc(C)c1)C(C)(C)C (stereo not shown) [RG-115853, 3,5-dimethyl-benzoic acid N-(1-tert-butyl-heptyl)-N′-(3-methoxy-2-methyl-benzoyl)-hydrazide] | 7.00 | 0.898 | –
CCCCCCC(N(NC(=O)c1cccc(OC)c1C)C(=O)c1cc(OC)c(C)c(OC)c1)C(C)(C)C (stereo not shown) [RG-115854] | 6.70 | 0.917 | –
COc1cccc(C(=O)NN(C(=O)c2cc(C)cc(C)c2)C(/C=C(\C)C(C)(C)C)C(C)(C)C)c1C (stereo not shown) [RG-115855, 3-methoxy-2-methyl-benzoic acid N′-(1-tert-butyl-3,4,4-trimethyl-pent-2-enyl)-N′-(3,5-dimethyl-benzoyl)-hydrazide] | 7.57 | 1.16 | –
COc1cccc(C(=O)NN(C(=O)c2cc(C)cc(C)c2)/C(=C/C#N)C(C)(C)C)c1C [RG-115860, 3-methoxy-2-methyl-benzoic acid N′-(1-tert-butyl-2-cyano-vinyl)-N′-(3,5-dimethylbenzoyl) hydrazide] | – | – | Avg F1 = 2307 at 33 μM
CCCCC(N(NC(=O)c1cccc(OC)c1C)C(=O)c1cc(C)cc(C)c1)C(C)(C)CCC (stereo not shown) [RG-115877, 3,5-Dimethyl-benzoic acid N-(1-butyl-2,2-dimethyl-pentyl)-N′-(3-methoxy-2-methyl-benzoyl)-hydrazide] | 5.65 | 1.48 | –
C=CCC(C)(C)C(CCCC)N(NC(=O)c1cccc(OC)c1C)C(=O)c1cc(C)cc(C)c1 (stereo not shown) [RG-115878, 3,5-dimethyl-benzoic acid N-(1-butyl-2,2-dimethyl-pent-4-enyl)-N′-(3-methoxy-2-methyl-benzoyl)-hydrazide] | 7.00 | 1.05 | –
